Source: US12195435B2, “5-methylchromone and the preparation method and application thereof” (HAINAN MEDICAL UNIVERSITY, priority 2020, dated 2025)

Molecular target: tyrosinase
Test: Determination of the activity of compounds inhibiting tyrosinase (L-tyrosine substrate, absorbance at 475 nm)
Assay type: biochemical
Details: for IC50: L-tyrosine 0.1 mg/mL, tyrosinase 48 U/mL, pH 6.8, 37° C. 30 min, n = 3, read-out: IC50 ± SEM (tyrosinase inhibition); for tyrosinase inhibitory activity (in words, compared with aloesin): comparison with positive control aloesin
Procedure: Method for determining the activity of inhibiting tyrosinase: Firstly, adding the sample: 40 μL (10% DMSO, setting different concentrations (0, 25, 50, 100, 200 μg/mL)) into a 96-well plate (aloesin is the positive control), then adding L-tyrosine: 40 μL (0.1 mg/mL, dissolving in 0.1M potassium phosphate buffer solution, pH=6.8), tyrosinase: 40 μL (48 U/mL, dissolving in 0.1M potassium phosphate buffer solution, pH=6.8), and finally diluting the volume to 200 μL with potassium phosphate buffer solution, and detecting the absorbance at 475 nm on 0 min; after incubating at 37° C. for 30 min, measuring the absorbance.

Row | IC50 [mM] | Structure (SMILES) | tyrosinase inhibitory activity (in words, compared with aloesin)
1 | 2.7 ± 0.04 | CC(=O)Cc1cc(=O)c2c(C)cc(O)c([C@@H]3O[C@H](CO)[C@@H](O)[C@H](O)[C@H]3O)c2o1 [Aloesin, aloesin, reference compound] | –
2 | 0.6 ± 0.03 | CCCc1cc(=O)c2c(C)cc(OCC)cc2o1 [Compound 1-6] | higher than the tyrosinase inhibitory activity of aloesin
3 | 0.2 ± 0.07 | CCCc1cc(=O)c2c(C)cc(OC)cc2o1 [Compound 1-5] | higher than the tyrosinase inhibitory activity of aloesin
4 | 5.4 ± 0.03 | Cc1cc(O)cc2oc(C(C)(C)C)cc(=O)c12 [Compound 1-4] | –
5 | 2.4 ± 0.1 | CCCc1cc(=O)c2c(C)cc(O)cc2o1 [Compound 1-3] | –
6 | 9.3 ± 0.09 | Cc1cc(=O)c2c(C)cc(O)cc2o1 [Compound 1-1] | –
7 | 6.2 ± 0.07 | CCc1cc(=O)c2c(C)cc(O)cc2o1 [Compound 1-2] | –
